Several values for one entry are separate records, joined by “and”; a condition that tells them apart may be missing. Equal values may be shown once.
The compounds below were run against Sialic acid-binding Ig-like lectin 9 (Homo sapiens, UniProt Q9Y336) (assay: Hs-Siglec9 ALPHAscreen SOP 20170721).
Sequence of Sialic acid-binding Ig-like lectin 9 (Q9Y336 whole entry): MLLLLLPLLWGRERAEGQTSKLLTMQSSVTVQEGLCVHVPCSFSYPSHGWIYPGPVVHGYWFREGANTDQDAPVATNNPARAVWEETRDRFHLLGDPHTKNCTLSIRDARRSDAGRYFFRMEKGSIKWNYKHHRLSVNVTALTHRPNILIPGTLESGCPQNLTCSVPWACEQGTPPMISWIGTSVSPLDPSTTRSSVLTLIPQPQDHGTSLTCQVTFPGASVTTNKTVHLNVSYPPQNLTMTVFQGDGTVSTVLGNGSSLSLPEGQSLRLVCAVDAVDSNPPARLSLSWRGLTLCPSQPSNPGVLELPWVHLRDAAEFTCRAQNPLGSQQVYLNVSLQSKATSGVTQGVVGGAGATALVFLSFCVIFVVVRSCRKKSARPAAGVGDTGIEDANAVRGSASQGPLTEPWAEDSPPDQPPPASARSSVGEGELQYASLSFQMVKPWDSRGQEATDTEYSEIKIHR

Structure (SMILES)	IC50
CCOC(=O)CNC(=O)c1cccnc1Oc1ccc(Cl)cc1	> 30.2 µM
CCOC(=O)[C@@H]1[C@@H](O)C(=O)N(C)C12CCN(C(=O)c1ccco1)CC2	> 30.2 µM
CCOC(=O)[C@@H]1[C@@H](OC)C(=O)N(C)C12CCN(C(=O)C(CC)CC)CC2	> 30.2 µM
CCOC(=O)[C@H]1[C@@H](O)C(=O)N(C)C12CCN(C(=O)OC)CC2	> 30.2 µM
CCOC(=O)[C@H]1[C@@H](O)C(=O)N(C)C12CCN(C(=O)OCC)CC2	> 30.2 µM
CCOC(=O)[C@H]1[C@@H](O)C(=O)N(C)C12CCN(C(=O)CC(C)C)CC2	> 30.2 µM
CCOC(=O)[C@H]1[C@@H](O)C(=O)N(C)C12CCN(S(=O)(=O)CC)CC2	> 30.2 µM
CCOC(=O)[C@H]1[C@@H](O)C(=O)N(C)C12CCN(C(=O)CC(C)(C)C)CC2	> 30.2 µM
CCOC(=O)[C@H]1[C@@H](O)C(=O)N(C)C12CCN(C(=O)C(CC)CC)CC2	> 30.2 µM
CCOC(=O)[C@H]1[C@@H](O)C(=O)N(C)C12CCN(C(=O)CC1CCCC1)CC2	> 30.2 µM
CCOC(=O)[C@@H]1[C@@H](O)C(=O)N(C)C12CCN(C(=O)OC)CC2	> 30.2 µM
CCOC(=O)[C@H]1[C@@H](O)C(=O)N(C)C12CCN(C(=O)c1ccccc1)CC2	> 30.2 µM
CC(C)NC(=O)c1csc(NC2CC2)n1	> 30.2 µM
CC(C)CCNc1nc(C(=O)NC2CC2)cs1	> 30.2 µM
CC(=O)NCC(=O)N1Cc2cc(C#N)ccc2C1c1cnco1 (configuration not stated)	> 30.2 µM
CN(C)C(=O)COC[C@]12COC[C@H]1CN(Cc1ccoc1)C2	> 30.2 µM
CCn1ncc2c1C(COC)CN(Cc1ccsc1)C2 (configuration not stated)	> 30.2 µM
CCC(=O)N1CCC2(CC1)COc1ccccc1S(=O)(=O)N(C)C2	> 30.2 µM
CCn1ncc2c1C(COC)CN(Cc1ccc(OC)cc1)C2 (configuration not stated)	> 30.2 µM
COCCNC(=O)c1nnn(Cc2ccccc2)c1OC	> 30.2 µM
CCNC(=O)c1nnn(Cc2ccccc2)c1OC	> 30.2 µM
CCN(CC)C(=O)c1nnn(Cc2ccccc2)c1OC	> 30.2 µM
COc1c(C(=O)NCc2cccnc2)nnn1Cc1ccc(C)cc1	> 30.2 µM
FC(F)(F)c1cc(C2CCCN(c3ncccn3)C2)n2ccnc2n1 (configuration not stated)	> 30.2 µM
CCc1cc(C(=O)N2CCCC(c3cc(=O)nc4n3CCC4)C2)no1 (configuration not stated)	> 30.2 µM

Structure (SMILES)	IC50
CC(C)c1cc(C(=O)N2CCCC(c3cc(=O)nc4n3CCC4)C2)no1 (configuration not stated)	> 30.2 µM
CC(C)CCN1CCC2(CC1)NCc1ccccc1NC2=O	> 30.2 µM
O=C1Nc2ccccc2CNC12CCN(CC1CCNC1)CC2 (configuration not stated)	> 30.2 µM
O=C1Nc2ccccc2CNC12CCN(CC1CCCC1)CC2	> 30.2 µM
O=C1Nc2ccccc2CNC12CCN(CC1CC1)CC2	> 30.2 µM
O=C1Nc2ccccc2CN(CC2CC2)C12CCNC2 (configuration not stated)	> 30.2 µM
CN1Cc2ccccc2NC(=O)C12CCNC2 (configuration not stated)	> 30.2 µM
CCCN1Cc2ccccc2NC(=O)C12CCNC2 (configuration not stated)	> 30.2 µM
CC(C)N(C)CC(=O)NCc1ccccc1N1CCN(C)CC1	> 30.2 µM
COc1ccc(C(C)NCc2cscn2)cc1Cn1cccn1 (configuration not stated)	> 30.2 µM
COc1ccc(C(C)NCc2cccs2)cc1Cn1cccn1 (configuration not stated)	> 30.2 µM
COc1ccc(C(C)NCc2ccnn2C)cc1Cn1cccn1 (configuration not stated)	> 30.2 µM
COc1ccc(C(C)NCc2scnc2C)cc1Cn1cccn1 (configuration not stated)	> 30.2 µM
c1cc2occc2c(N2CCCC(c3nncn3C3CC3)C2)n1 (configuration not stated)	> 30.2 µM
Cc1cc(N2CCCC(c3nncn3C3CC3)C2)ncn1 (configuration not stated)	> 30.2 µM
Cc1ccnc(N2CCCC(c3nncn3C3CC3)C2)n1 (configuration not stated)	> 30.2 µM
Cc1ccnc(NC(=O)c2c(C)oc(C)c2C)c1	> 30.2 µM
Cc1ccnc(NC(=O)c2cc(C)oc2C)c1	> 30.2 µM
Cc1oc(C)c(C(=O)Nc2ccccn2)c1C	> 30.2 µM
COCCC1(C(=O)NCCc2nncn2C2CC2)CCC1	> 30.2 µM
O=C(NCCc1nncn1C1CC1)C1(c2ccccc2)CCC1	> 30.2 µM
CC(C)CC1(C(=O)NCCc2nncn2C2CC2)CCC1	> 30.2 µM
O=C(NCCc1nncn1C1CC1)C1(Cc2ccccc2)CCC1	> 30.2 µM
O=C(NCCc1nncn1C1CC1)C1SCCc2ccccc21 (configuration not stated)	> 30.2 µM
O=C(NCCc1nncn1C1CC1)C1SCCc2sccc21 (configuration not stated)	> 30.2 µM

Structure (SMILES)	IC50
COCCN(CCOC)C(=O)c1ccoc1C	> 30.2 µM
Cc1cc(C(=O)N2CCNC(=O)CC2)c(C)n1CC(F)(F)F	> 30.2 µM
CCn1c(C)cc(C(=O)N2CCC(NC(=O)c3cc(C)no3)CC2)c1C	> 30.2 µM
CCn1c(C)cc(C(=O)N2CCC(NC(=O)c3ccc(C)o3)CC2)c1C	> 30.2 µM
CCn1c(C)cc(C(=O)N2CCC(Nc3cccnn3)CC2)c1C	> 30.2 µM
Cc1occc1C(=O)N1CCOC2(CCCC2)C1	> 30.2 µM
COC(=O)C(O)C1CCN(CCc2ccncc2)CC1 (configuration not stated)	> 30.2 µM
COC(=O)C(O)C1CCN(CCc2ccccn2)CC1 (configuration not stated)	> 30.2 µM
COC(=O)C(O)C1CCN(CCc2ccc(C)cc2)CC1 (configuration not stated)	> 30.2 µM
CC(=O)NCCCSC1CCN(c2ccccc2Cl)C1=O (configuration not stated)	> 30.2 µM
CC(=O)NCCCSC1CCN(c2c(F)cccc2F)C1=O (configuration not stated)	> 30.2 µM
CC(=O)NCCCSC1CCN(c2ccccc2F)C1=O (configuration not stated)	> 30.2 µM
Cc1ccsc1C(=O)N1CCC(Nc2cccnc2)CC1	14.5 µM and > 30.2 µM
Cc1cc(C(=O)N2CCC(Nc3cccnc3)CC2)c(C)s1	> 30.2 µM
COc1cc(C(=O)N2CCC(Nc3cccnc3)CC2)ccc1C	> 30.2 µM
COc1ccc(OC)c(C(=O)N2CCC(Nc3cccnc3)CC2)c1	> 30.2 µM
Cc1cc(C(=O)NC2CC(=O)N(C(C)C)C2=O)c(C)n1C(C)C (configuration not stated)	> 30.2 µM
CCc1cc(N2CCCC(c3noc(CC)n3)C2)ncn1 (configuration not stated)	> 30.2 µM
CCc1nc(C2CCCN(c3ncccn3)C2)no1 (configuration not stated)	> 30.2 µM
CCc1nc(C2CCCN(c3ncc(Br)cn3)C2)no1 (configuration not stated)	> 30.2 µM
Cc1nc(C2CCCN(c3ncc(Br)cn3)C2)no1 (configuration not stated)	> 30.2 µM
CCc1nc(C2CCCN2c2ncc(Br)cn2)no1 (configuration not stated)	> 30.2 µM
CCc1nc(C2CCCN(c3nccc(C)n3)C2)no1 (configuration not stated)	> 30.2 µM
COC(=O)C(O)C1CCN(Cc2cccc(-n3cccn3)c2)CC1 (configuration not stated)	> 30.2 µM
Cc1cc(S(=O)(=O)NCC(C)(O)CN(C)C)c(F)cc1F (configuration not stated)	> 30.2 µM

Structure (SMILES)	IC50
CC(C)n1cnnc1C1CCCN(S(=O)(=O)CCCC#N)C1 (configuration not stated)	> 30.2 µM
CC(C)n1cnnc1C1CCCN(S(=O)(=O)CCCF)C1 (configuration not stated)	> 30.2 µM
CC(C)CCS(=O)(=O)N1CCCC(c2nncn2C(C)C)C1 (configuration not stated)	> 30.2 µM
CC(C)n1cnnc1C1CCCN(S(=O)(=O)c2c[nH]cn2)C1 (configuration not stated)	> 30.2 µM
CC(C)n1cnnc1C1CCCN(S(=O)(=O)CC2CCCC2)C1 (configuration not stated)	> 30.2 µM
CCN(C(=O)c1cc(C)oc1C)C1CC1	> 30.2 µM
Cc1cc(S(=O)(=O)N(CCO)C2CC2)ccc1F	> 30.2 µM
O=C(NCCc1nncn1C1CC1)c1cnn(Cc2ccccc2)c1	> 30.2 µM
Cc1cc(C(=O)N2CCCS2(=O)=O)c(C)o1	> 30.2 µM
Cc1occc1C(=O)N1CCCS1(=O)=O	> 30.2 µM
O=C(NCC1(O)CCC1)c1cccc(-n2cccn2)c1	> 30.2 µM
CCC(=O)NCC(=O)NCc1cc(Br)ccc1OC(F)F	> 30.2 µM
CC(c1ccc(Cl)cc1)N1CCN(CCNS(C)(=O)=O)CC1 (configuration not stated)	> 30.2 µM
Cc1nc(C)c(C(=O)N2CCC(Nc3cccnc3)CC2)s1	9.22 µM and 7.13 µM and 9.36 µM and 3.87 µM
Cc1cc(S(=O)(=O)NC(C)(C)CN)c(F)cc1F	> 30.2 µM
Cc1cc(S(=O)(=O)NCC(C)(C)N)c(F)cc1F	> 30.2 µM
Cc1ccsc1CN1C[C@@H]2COC[C@]2(COCC(=O)N(C)C)C1	> 30.2 µM
CN(C)C(=O)COC[C@]12COC[C@H]1CN(CCc1ccccc1)C2	> 30.2 µM
Cc1csc(CN2C[C@@H]3COC[C@]3(COCC(=O)N(C)C)C2)n1	> 30.2 µM
CN(C)C(=O)COC[C@]12COC[C@H]1CN(Cc1ccco1)C2	> 30.2 µM
CN(C)C(=O)COC[C@]12COC[C@H]1CN(Cc1ccccc1)C2	> 30.2 µM
CCn1nnc2c1C(COC)CN(Cc1ccsc1)C2 (configuration not stated)	> 30.2 µM
Cc1nc(COC[C@]23COC[C@H]2CN(Cc2ccoc2)C3)cs1	> 30.2 µM
CN(C)C(=O)COC[C@]12COC[C@H]1CN(CC1CCC1)C2	> 30.2 µM
c1csc(CN2Cc3nccn3CC(Cn3cncn3)C2)n1 (configuration not stated)	> 30.2 µM

Structure (SMILES)	IC50
CC(=O)N1Cc2ccnn2CC(C(=O)NCc2cccnc2)C1 (configuration not stated)	> 30.2 µM
Cc1occc1C(=O)N1CCO[C@H]2[C@H](Oc3cccnc3)CC[C@@H]21	> 30.2 µM
O=C(C1CCOCC1)N1CCO[C@H]2[C@H](Oc3ccccn3)CC[C@@H]21	> 30.2 µM
Cc1occc1C(=O)N1C[C@H](Oc2ccccn2)[C@H]2OCCC[C@H]21	> 30.2 µM
Cc1cc(C(=O)N2CCO[C@H]3[C@H](Oc4ccccn4)CC[C@@H]32)c(C)[nH]1	> 30.2 µM
Cc1occc1C(=O)N1CCO[C@H]2[C@H](OCc3ccccn3)CC[C@@H]21	> 30.2 µM
O=C(c1cscn1)N1CCO[C@H]2[C@@H](Oc3ccccn3)CC[C@@H]21	> 30.2 µM
c1cnc(N2CCC3(CCN(CC4CCOC4)CC3)C2)nc1 (configuration not stated)	> 30.2 µM
c1cnc(N2CCCC3(CCN(CC4CCOC4)CC3)C2)nc1 (configuration not stated)	> 30.2 µM
c1cnc(N2CCC3(CCCN(CC4CC4)C3)CC2)nc1	> 30.2 µM
O=C(N1CCCC1)N1CCO[C@H]2[C@@H](Oc3ccccn3)CC[C@@H]21	> 30.2 µM
Cc1occc1C(=O)N1CCO[C@H]2[C@@H](Oc3ccccn3)CC[C@@H]21	> 30.2 µM
O=C(C1=CCCC1)N1CCO[C@H]2[C@@H](Oc3ccccn3)CC[C@@H]21	> 30.2 µM
Cc1cccc(CN2C[C@@H]3COC[C@]3(COCC(=O)N(C)C)C2)n1	> 30.2 µM
CS(=O)(=O)N1Cc2ccnn2CC(C(=O)NCc2cccnc2)C1 (configuration not stated)	> 30.2 µM
Cc1cncc(C(=O)N2CCO[C@H]3[C@H](Oc4ccccn4)CC[C@@H]32)c1	> 30.2 µM
c1cnc(N2CCC3(CCN(CC4CCCC4)CC3)C2)nc1	> 30.2 µM
c1cnc(N2CCC3(CCN(CC4CCOCC4)CC3)C2)nc1	> 30.2 µM
CCn1ncc2c1C(COC)CN(Cc1cccnc1)C2 (configuration not stated)	> 30.2 µM
COc1ccc([C@@H]2CN(Cc3ccncc3)C[C@H]2c2cc[nH]n2)cc1	> 30.2 µM
c1ccc([C@@H]2CN(Cc3cccnc3)C[C@H]2c2cc[nH]n2)cc1	> 30.2 µM
c1ccc([C@@H]2CN(Cc3ccncc3)C[C@H]2c2cc[nH]n2)cc1	> 30.2 µM

Reference: ChEMBL document CHEMBL3988442, “University of Dundee, Small-Polar-MMV Screening Library” (2021)
